Test results reported in patent US6916802B2, “Amino ceramide-like compounds and therapeutic methods of use” (Genzyme Corporation, priority 2002, dated 2005).
Where “and” joins values, the source holds several entries; their conditions need not be identical. Equal entries are not always repeated. Marks after values point to notes of the source that are not given here.

What was measured:
[1] = tested on: HT-29 colon adenocarcinoma cells; assay: Tumor cell growth in vitro (sulforhodamine B), HT-29; type: cell-based, human; conditions: rounded off to one digit, read-out: Inhibition of tumor cell growth in vitro, IC50
Method: (§1) Growth of cell lines. Comparisons of different inhibitors with regard to suppression of human cancer cell growth were made by the University of Michigan Cancer Center in vitro Drug Evaluation Core Laboratory. MCF-7 breast carcinoma cells, HT-29 colon adenocarcinoma cells, H-460 lung large cell carcinoma cells, and 9L brain gliosarcoma cells were grown in RPMI 1640 medium with 5% fetal bovine serum, 2 mM glutamine, 50 units/ml of penicillin, […] of streptomycin, and 0.1 mg/ml of neomycin. UMSCC-10A head and neck squamous carcinoma cells were grown in minimal essential medium with Earle salts and the same supplements. Medium components were from Sigma Chemical Co. Cells were plated in 96-well microtiter plates (1000 cells/well for H-460 and 9L cells, and 2000 cells/well for the other lines), and the test compounds were added 1 day later. The stock inhibitor solutions, 2 mM in 2 mM BSA, were diluted with different amounts of additional 2 mM BSA, then each solution was diluted 500-fold with growth medium to obtain the final concentrations indicated in the Figures and Tables.
(§2) Five days after plating the H-460 and 9L cells, or 6 days for the other lines, cell growth was evaluated by staining the adhering cells with sulforhodamine B and measuring the absorbance at 520 nm (Skehan, P. et al., “New Colorimetric Cytotoxicity Assay for Anticancer-Drug Screening,” J. Natl. Cancer Inst., 82:1107-1112 (1990)). The absorbance of the treated cultures is reported as percent of that of control cultures, to provide an estimate of the fraction of the cells that survived, or of inhibition of growth rate.

[2] = tested on: GlcCer synthase of MDCK cell homogenates; assay: Inhibition of ceramide glucosyltransferase (GlcCer synthase) of MDCK cell homogenates; type: biochemical, canine; conditions: for Inhibition at 5 μM: 5 μM inhibitor; for Inhibition at 5 μM / % Inhibition at 80 μM: triplicate ± SD, samples partly isomer mixtures; for % Inhibition at 80 μM: 80 μM inhibitor
Method: Assay of sphingolipid enzymes. The inhibitors were evaluated for their effectiveness against the GlcCer synthase of MDCK cell homogenates by incubation in a thermostatted ultrasonic bath (Radin N. S. et al., “Ultrasonic Baths as Substitutes for Shaking Incubator Baths,” Enzyme, 45:67-70 (1991)) with octanoyl sphingosine and uridinediphospho[^3H]glucose (Shukla, G. S. et al., “Glucosylceramide Synthase of Mouse Kidney: Further Characterization and Improved Assay Method,” Arch. Biochem. Biophys., 283:372-378 (1990)). The lipoidal substrate (85 μg) was added in liposomes made from 0.57 mg dioleoylphosphatidylcholine and 0.1 mg of Na sulfatide. Confluent cells were washed, then homogenized with a micro-tip sonicator at 0° C. for 3×30 sec; ˜0.2 mg of protein was used in each assay tube. In the case of the aromatic inhibitors, the test compound was simply evaporated to dryness from solution in the incubation tube. […] The aliphatic inhibitors, which appeared to be less soluble in water, were added as part of the substrate liposomes.

[3] = tested on: H-460 lung large cell carcinoma cells; assay: Tumor cell growth in vitro (sulforhodamine B), H-460; type: cell-based, human; conditions: rounded off to one digit, read-out: Inhibition of tumor cell growth in vitro, IC50
Method: as §1, §2

[4] = tested on: MCF-7 breast carcinoma cells; assay: Tumor cell growth in vitro (sulforhodamine B), MCF-7; type: cell-based, human; conditions: rounded off to one digit, read-out: Inhibition of tumor cell growth in vitro, IC50
Method: as §1, §2

[5] = tested on: 9L brain gliosarcoma cells; assay: Tumor cell growth in vitro (sulforhodamine B), 9L; type: cell-based; conditions: 9L; rounded off to one digit; read-out: Inhibition of tumor cell growth in vitro, IC50
Method: as §1, §2

[6] = biological target: T1, 1-O-acylceramide synthase (Canis lupus familiaris, UniProt Q6XPZ3); assay: 1-O-acylceramide synthase (transacylase) assay; type: biochemical; conditions: D-threo enantiomers, FIG. 12
T1 construct: the 1-O-acylceramide synthase assayed in the cellular homogenates; endogenous in cells; host or cells: cellular homogenates (MDCK, from context)
T1 sequence (Q6XPZ3 32-408): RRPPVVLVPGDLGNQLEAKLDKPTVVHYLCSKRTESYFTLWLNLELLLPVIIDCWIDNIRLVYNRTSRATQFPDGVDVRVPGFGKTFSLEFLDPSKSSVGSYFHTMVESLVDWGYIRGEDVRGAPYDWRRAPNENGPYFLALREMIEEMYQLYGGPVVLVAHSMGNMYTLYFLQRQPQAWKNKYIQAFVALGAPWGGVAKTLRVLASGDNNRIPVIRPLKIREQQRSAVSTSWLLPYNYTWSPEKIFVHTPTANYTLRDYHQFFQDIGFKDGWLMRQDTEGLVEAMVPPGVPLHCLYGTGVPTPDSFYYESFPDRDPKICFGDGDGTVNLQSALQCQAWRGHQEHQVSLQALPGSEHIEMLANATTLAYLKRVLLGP
Description: Distinguishing Between Inhibition of GlcCer Synthase and 1-O-acylceramide Synthase Inhibition. […] An alternative pathway for ceramide metabolism was subsequently identified, the acylation of ceramide at the 1-hydroxyl position, which was blocked by both threo and erythro diastereomers of PDMP. The specificities of D-threo-P4, D-threo-3′,4′-ethylenedioxy-P4, and D-threo-(4′-hydroxy)-P4 for GlcCer synthase were studied by assaying the transacylase.

MDCK cells [7] = assay: GlcCer, ceramide and diradylglycerol content of treated MDCK cells (Specific Example 2); type: cell-based, canine; conditions: for GlcCer lost from the cells (depletion): 11.3 nM inhibitor
Method: Cell culture and lipid extraction. One half million of MDCK cells were seeded into 10 cm style dish containing 8 ml serum free DMEM supplemented medium. Shayman, J. A. et al., J. Biol. Chem., 265:12135-12138 (1990). […] The GlcCer synthase inhibitors were added into the medium as a one to one complex with delipidated BSA. Abe, A. et al., J. Lipid. Res., 36:611-621 (1995); Abe, A. et al., Biochim. Biophys. Acta, 1299:331-341 (1996). The cells were incubated for 24 h or 48 h with the inhibitors. After the incubation, the cells were washed twice with 8 ml of cold PBS and fixed with 2 ml of cold methanol. The fixed cells were scraped and transferred to a glass tube. Another one ml of methanol was used to recover the remaining cells in the dish.
Three ml of chloroform was added to the tube and briefly sonicated using a water bath type sonicator. After centrifugation at 800 g for 5 min, the supernatant was transferred into another glass tube. The residues were reextracted with chloroform/methanol (1/1). After the centrifugation, the resultant supernatant was combined with the first one. The residues were air-dried and kept for protein analysis. Adding 0.9% NaCl to the supematant combined, the ratio of chloroform/methanol/aqueous was adjusted to 1/1/1. After centrifugation 800 g for 5 min, the upper layer was discarded. Methanol/water (1/1) with the same amount of volume of the lower layer was used to wash. The resultant lower layer was transferred into a small glass tube and dried down under a stream of nitrogen gas. A part of the lipid was used for lipid phosphate determination. Ames, B. N., Methods Enzymol., 8:115-118 (1966). The remainder was analyzed using HPTLC (Merck).
In order to determine whether inhibition of 1-O-acylceramide synthase was the basis for inhibitor mediated ceramide accumulation, the ceramide and diradylglycerol levels of MDCK cells treated D-threo-P4, D-threo-3′,4′-ethylenedioxy-P4, and D-threo-(4′-hydroxy)-P4 were measured (Table 9). MDCK cells (5×10^5) were seeded into a 10 cm dish and incubated for 24 h. Following the incubation, the cells were treated for 24 or 48 h with or without P4 or the phenyl substitute homologues. Both ceramide and diradylglycerol contents were determined by the method of Preis, J. et al., J. Biol. Chem., 261:8597-8600 (1986). GlcCer content was measured densitometrically by a video camera and use of NIH image 1.49. Significant increases in both ceramide and diradylglycerol occurred only in cells treated with inhibitor concentrations in excess of 1 mM. This was approximately 30-fold lower than the concentration required for inhibition of the 1-O-acylceramide synthase assayed in the cellular homogenates. […] Abe, A. et al., Biochim. Biophys. Acta, 1299:331-341 (1996).
(§3) Effects of D-threo-P4, D-threo4′-hydroxy-P4 and D-threo-3,4′-ethylenedioxy-P4 on GlcCer Synthesis and Cell Growth. To confirm the cellular specificity of D-threo-3′,4′-ethylenedioxy-P4 and D-threo-(4′-hydroxy)-P4 as compared to D-threo-P4, MDCK cells were treated with different concentrations of the inhibitors. The total protein amount in each sample was determined by the BCA method. In GlcCer analysis, lipid samples and standard lipids were applied to the same HPTLC plate pre-treated with borate and developed in a solvent consisting of C/M/W (63/24/4). The level of GlcCer was estimated from a standard curve obtained using a computerized image scanner. The values were normalized on the basis of the phospholipid content. The results are shown in FIG. 7, wherein each bar is the average values from three dishes, with error bars corresponding to one standard deviation. In the control, the total protein and GlcCer were 414±47.4 μg/dish and 24.3±1.97 ng/nmol phosphate, respectively.

MDCK cells [8] = assay: Cell growth of treated MDCK cells, total protein (Specific Example 2); type: cell-based, canine
Method: Cell culture and lipid extraction. One half million of MDCK cells were seeded into 10 cm style dish containing 8 ml serum free DMEM supplemented medium. Shayman, J. A. et al., J. Biol. Chem., 265:12135-12138 (1990). After 24 h the medium was replaced with 8 ml of the medium containing 0, 11.8, 118 or 1180 nM D-t-P4, D-t-3′,4′-ethylenedioxy-P4 or D-4′-hydroxy)-P4. The GlcCer synthase inhibitors were added into the medium as a one to one complex with delipidated BSA. Abe, A. et al., J. Lipid. Res., 36:611-621 (1995); Abe, A. et al., Biochim. Biophys. Acta, 1299:331-341 (1996). The cells were incubated for 24 h or 48 h with the inhibitors. After the incubation, the cells were washed twice with 8 ml of cold PBS and fixed with 2 ml of cold methanol. The fixed cells were scraped and transferred to a glass tube. Another one ml of methanol was used to recover the remaining cells in the dish.
as §3

[9] = substituent of phenyl group; estimated from the Table in Hogberg et al.; cited from earlier work

For `CCCCCCCCCCCCCCCC(=O)NC(CN1CCCCC1)C(O)c1ccccc1` (mixture of isomers) [BML-115], the IC50 [1] was 2000 nM, the “Inhibition at 5 μM” value [2] was 12.4% and the “% Inhibition at 80 μM” value ([2]; 80 µM) was 82 ± 0.3^b % and 84 ± 0.8^a %. The “improvement of activity relative to PPMP” value ([2]; calculated from inhibitions at 5 μM in Expt. f and relative purities) was ~1.4 fold, the IC50 [3] was 2000 nM and the IC50 [4] was 2000 nM. It also gave an IC50 [5] of 2000 nM.

With `CCCCCCCCCCCCCCCC(=O)NC(CN1CCC1)C(O)c1ccccc1` (mixture of isomers) [BML-123] the IC50 [1] was 2000 nM, the “Inhibition at 5 μM” value [2] was 15 ± 0.8^f % and the “% Inhibition at 80 μM” value [2] was 86 ± 0.1^d %. For the same molecule, the IC50 [4] was 2000 nM and the IC50 [5] was 2000 nM.

With `CCCCCCCCCCCCCCCC(=O)N[C@H](CN1CCCC1)[C@H](O)c1ccc2c(c1)OCCO2` [D-threo-3′,4′-ethylenedioxy-P4, D-t-3′,4′-ethylenedioxy-1-phenyl-2-palmitoylamino-3-pyrrolidino-1-propanol] the “activity in blocking 1-O-acylceramide synthase” value [6] was “comparable activity”, the “GlcCer lost from the cells (depletion)” value (MDCK cells [7]) was ~78% and the “GlcCer lost from the cells (depletion)” value (MDCK cells [7]; listed as D-t-3′,4′-ethylenedioxy-P4) was 80%. For the same molecule, the “Ceramide (pmol/nmol phospholipids)” value (MDCK cells [7]; 113 nM, 24 h) was 5.21 pmol/nmol phospholipids, the “level of ceramide versus untreated cells” value (MDCK cells [7]; 1130 nM) was “two times higher” and the “total protein versus untreated cells” value (MDCK cells [8]; 1130 nM) was “significant decrease”. The “total protein content versus untreated cells” value (MDCK cells [8]; 11.3 or 113 nM) was “little difference”.

For `CCCCCCCCCCCCCCCC(=O)N[C@H](CN1CCCC1)[C@H](O)c1ccccc1` [D-threo-P4], the “activity in blocking 1-O-acylceramide synthase” value [6] is listed as “comparable activity”, the “σ + π” value [9] is listed as 0.00 and the “GlcCer lost from the cells (depletion)” value (MDCK cells [7]) is listed as 27%. For the same molecule, the “Ceramide (pmol/nmol phospholipids)” value (MDCK cells [7]; 11.3 nM, 24 h) was 5.33 ± 0.41 pmol/nmol phospholipids, the “Diradylglycerol (pmol/nmol phospholipids)” value (MDCK cells [7]; 11.3 nM, 24 h) was 24.1 ± 1.66 pmol/nmol phospholipids and the “Ceramide (pmol/nmol phospholipids)” value (MDCK cells [7]; 11.3 nM, 48 h) was 5.68 ± 0.27 pmol/nmol phospholipids. The “Diradylglycerol (pmol/nmol phospholipids)” value (MDCK cells [7]; 11.3 nM, 48 h) was 29.6 ± 0.73 pmol/nmol phospholipids, the “Ceramide (pmol/nmol phospholipids)” value (MDCK cells [7]; 113 nM, 24 h) was 4.64 ± 0.38 pmol/nmol phospholipids and the “Diradylglycerol (pmol/nmol phospholipids)” value (MDCK cells [7]; 113 nM, 24 h) was 26.6 ± 1.56 pmol/nmol phospholipids. For the same molecule, the “Ceramide (pmol/nmol phospholipids)” value (MDCK cells [7]; 113 nM, 48 h) was 7.08 ± 0.29 pmol/nmol phospholipids, the “Diradylglycerol (pmol/nmol phospholipids)” value (MDCK cells [7]; 113 nM, 48 h) was 33.0 ± 2.63 pmol/nmol phospholipids and the “Ceramide (pmol/nmol phospholipids)” value (MDCK cells [7]; 1130 nM, 24 h) was 5.10 ± 0.35 pmol/nmol phospholipids. For the same molecule, the “Diradylglycerol (pmol/nmol phospholipids)” value (MDCK cells [7]; 1130 nM, 24 h) was 27.1 ± 0.67 pmol/nmol phospholipids, the “Ceramide (pmol/nmol phospholipids)” value (MDCK cells [7]; 1130 nM, 48 h) was 9.74 ± 0.53 pmol/nmol phospholipids and the “Diradylglycerol (pmol/nmol phospholipids)” value (MDCK cells [7]; 1130 nM, 48 h) was 38.8 ± 1.11 pmol/nmol phospholipids.

In the case of `CCCCCCCCCCCCCCCC(=O)N[C@H](CN1CCCC1)[C@H](O)c1ccc(OC)cc1` [D-threo-p-methoxy-P4], the “σ + π” value [9] is listed as −0.29.
